Read-outs that look alike come from different tables or passages of the source.
What was measured:
Assay type in all cases: in vivo
[1] = test system: Beet Armyworm (Spodoptera exigua, LAPHEG); experiment: Bioassays on Beet Armyworm (BAW), 128-well diet tray assay; conditions: Spodoptera exigua; for mortality at 50 µg/cm2: 168 h, second instar larvae, 50 μg/cm^2 of test molecule on artificial diet, 25° C., five to seven days, average of eight wells, read-out: BAW % Control (or Mortality) rating
Outline: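 One to five second-instar larvae per well on artificial diet surface-treated with 50 μg/cm^2 test molecule (applied in 90:10 acetone-water, dried), eight wells per compound. Trays held vented at 25° C., 14:10 light-dark for five to seven days; percent mortality averaged over the eight wells.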

[2] = test system: Cabbage Looper (Trichoplusia ni, TRIPNI); experiment: Bioassays on Cabbage Looper (CL), 128-well diet tray assay; conditions: Trichoplusia ni; for mortality at 50 µg/cm2: 168 h, second instar larvae, 50 μg/cm^2 of test molecule on artificial diet, 25° C., five to seven days, average of eight wells, read-out: CL % Control (or Mortality) rating
Outline: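 Each of eight wells receives artificial diet treated at 50 μg/cm^2 with the test molecule, then one to five second-instar larvae. Incubation runs five to seven days at 25° C with a 14:10 light-dark cycle under vented covers. Mortality is scored per well as a percentage and averaged.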

[3] = test system: Yellow Fever Mosquito (Aedes aegypti, AEDSAE); conditions: for YFM rating: Table ABC / ABC-DP rating; for YFM % Control (or Mortality) rating: about 1 day-old larvae, 4000 ppm master solution diluted with 90:10 water/acetone, 15 μL per well plus 220 μL larval mixture, 3 days
Outline: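 Larvae ~1 day old, in liver powder/water; compound from 4000 ppm DMSO stock diluted with water/acetone (90:10); 6 reps; lidded, RT, 3 d; mortality scored per well, rated.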

[4] = Beet Armyworm, rating class, read-out: BAW
[5] = Cabbage Looper, rating class, read-out: CL
[6] = Yellow Fever Mosquito, rating class
[7] = Table ABC: Biological Results, species BAW, read-out: BAW
[8] = Table ABC: Biological Results, species CL, read-out: CL
[9] = Table ABC: Biological Results, species YFM
[10] = Beet Armyworm, Table ABC / ABC-DP rating, read-out: BAW rating
[11] = Cabbage Looper, Table ABC / ABC-DP rating, read-out: CL rating

In the case of CC(=O)Nc1cc(F)c(F)cc1NC(=O)c1cc(NC(=O)[C@H]2[C@H](c3cc(Cl)cc(Cl)c3)C2(Cl)Cl)ccc1Cl (relative stereo) [F1634, trans-N-(2-Acetamido-4,5-difluorophenyl)-2-chloro-5-(2,2-dichloro-3-(3,5-dichlorophenyl)cyclopropane-1-carboxamido)benzamide], the pest or weed control at 50 µg/cm2 [1, 4] is reported as 50 to 100%, the pest or weed control at 50 µg/cm2 [2, 5] is reported as 50 to 100% and the YFM [3, 6] is reported as “B (More than 0 – Less than 80)”.
In the case of CN(C(=O)C(F)F)c1c(F)ccc(NC(=O)c2cc(NC(=O)[C@H]3[C@H](c4cc(Cl)c(Cl)c(Cl)c4)C3(Cl)Cl)ccc2Cl)c1F [F1461, 2-Chloro-5-((1R,3R)-2,2-dichloro-3-(3,4,5-trichlorophenyl)cyclopropane-1-carboxamido)-N-(3-(2,2-difluoro-N-methylacetamido)-2,4-difluorophenyl)benzamide], the pest or weed control at 50 µg/cm2 [1, 4] is reported as 50 to 100%, the pest or weed control at 50 µg/cm2 [2, 5] is reported as 50 to 100% and the YFM [3, 6] is reported as “A (80–100)”.
For C=C(F)c1cc(F)ccc1NC(=O)c1cc(NC(=O)[C@H]2[C@H](c3cc(Cl)cc(Cl)c3)C2(Cl)Cl)ccc1Cl (relative stereo) [F1319, trans-2-Chloro-5-(2,2-dichloro-3-(3,5-dichlorophenyl)cyclopropane-1-carboxamido)-N-(4-fluoro-2-(1-fluorovinyl)phenyl)benzamide], the pest or weed control at 50 µg/cm2 [1, 7] was 50 to 100%, the pest or weed control at 50 µg/cm2 [2, 8] was 50 to 100% and the YFM [3, 9] was “A (80–100)”.
With C#CCCCC(=O)Nc1c(F)ccc(NC(=O)c2cc(NC(=O)[C@H]3[C@H](c4ccc(F)c(C(F)(F)F)c4)C3(Cl)Cl)ccc2Cl)c1F [F1857] the pest or weed control at 50 µg/cm2 [1, 10] was 50 to 100%, the pest or weed control at 50 µg/cm2 [2, 11] was 50 to 100% and the YFM rating ([3]; Yellow Fever Mosquito) was “A (80–100)”.
With Cc1cc(NC(=O)[C@H]2[C@H](c3ccc(F)c(Cl)c3)C2(Cl)Cl)cc(C(=O)NCC(F)(F)C(F)(F)F)c1F (relative stereo) [F2031, trans-5-(2,2-Dichloro-3-(3-chloro-4-fluorophenyl)cyclopropane-1-carboxamido)-2-fluoro-3-methyl-N-(2,2,3,3,3-pentafluoropropyl)benzamide] the pest or weed control at 50 µg/cm2 [1, 10] was 50 to 100%, the pest or weed control at 50 µg/cm2 [2, 11] was 50 to 100% and the YFM rating ([3]; Yellow Fever Mosquito) was “A (80–100)”.
Work on CC(C)(C)OC(=O)N(C(=O)OC(C)(C)C)c1cc(NC(=O)c2cc(NC(=O)[C@H]3[C@H](c4ccc(Cl)c(Cl)c4)C3(Cl)Cl)ccc2Cl)c(F)cc1F [DP12, tert-Butyl-N-((tert-butoxy)carbonyl)-N-(5-(2-chloro-5-((1R,3R)-2,2-dichloro-3-(3,4-dichlorophenyl)cyclopropane-1-carboxamido)benzamido)-2,4-difluorophenyl)carbamate] yielded a mortality at 50 µg/cm2 [1] of 50 to 100%, a pest or weed control at 50 µg/cm2 [1, 10] of 50 to 100% and a mortality at 50 µg/cm2 [2] of 50 to 100%. For the same compound, the pest or weed control at 50 µg/cm2 [2, 11] was 50 to 100% and the “YFM % Control (or Mortality) rating” value [3] was “D (No activity noticed in this bioassay)”.
In the case of Nc1c(F)ccc(NC(=O)c2cc(NC(=O)[C@H]3[C@H](c4ccc(Br)c(C(F)(F)F)c4)C3(Cl)Cl)ccc2Cl)c1F (relative stereo) [F1116, trans-N-(3-Amino-2,4-difluorophenyl)-5-(3-(4-bromo-3-(trifluoromethyl)phenyl)-2,2-dichlorocyclopropane-1-carboxamido)-2-chlorobenzamide], the pest or weed control at 50 µg/cm2 [1, 7] is reported as 50 to 100%, the pest or weed control at 50 µg/cm2 [2, 8] is reported as 50 to 100% and the YFM [3, 9] is reported as “A (80–100)”.
With CC(=O)Nc1cc(NC(=O)c2cc(NC(=O)[C@H]3[C@H](c4ccc(F)c(C(F)(F)F)c4)C3(Cl)Cl)ccc2F)c(F)cc1F [F1559, N-(5-Acetamido-2,4-difluorophenyl)-5-((1R,3R)-2,2-dichloro-3-(4-fluoro-3-(trifluoromethyl)phenyl)cyclopropane-1-carboxamido)-2-fluorobenzamide] the pest or weed control at 50 µg/cm2 [1, 4] was 50 to 100%, the pest or weed control at 50 µg/cm2 [2, 5] was 50 to 100% and the YFM [3, 6] was “A (80–100)”.
For CC(=O)NCCCCCNC(=O)c1cc(NC(=O)[C@H]2[C@H](c3cc(Cl)cc(Cl)c3)C2(Cl)Cl)ccc1Cl (relative stereo) [F2069, trans-N-(5-Acetamidopentyl)-2-chloro-5-(2,2-dichloro-3-(3,5-dichlorophenyl)cyclopropane-1-carboxamido)benzamide], the pest or weed control at 50 µg/cm2 [1, 10] was 50 to 100%, the pest or weed control at 50 µg/cm2 [2, 11] was 50 to 100% and the YFM rating ([3]; Yellow Fever Mosquito) was “A (80–100)”.
In the case of CCC(F)(F)C(=O)Nc1c(F)ccc(NC(=O)c2cc(NC(=O)[C@H]3[C@H](c4ccc(F)c(C(F)(F)F)c4)C3(Cl)Cl)ccc2Cl)c1F [F1357, 2-Chloro-5-((1R,3R)-2,2-dichloro-3-(4-fluoro-3-(trifluoromethyl)phenyl)cyclopropane-1-carboxamido)-N-(3-(2,2-difluorobutanamido)-2,4-difluorophenyl)benzamide], the pest or weed control at 50 µg/cm2 [1, 7] is reported as 50 to 100%, the pest or weed control at 50 µg/cm2 [2, 8] is reported as 50 to 100% and the YFM [3, 9] is reported as “A (80–100)”.
Cc1cc(NC(=O)OC(C)(C)C)ccc1NC(=O)c1cc(NC(=O)[C@H]2[C@H](c3cc(Cl)cc(Cl)c3)C2(Cl)Cl)ccc1Cl (relative stereo) [DP10, trans-tert-butyl-(4-(2-chloro-5-(2,2-dichloro-3-(3,5-dichlorophenyl)cyclopropane-1-carboxamido)benzamido)-3-methylphenyl)carbamate] gave a mortality at 50 µg/cm2 [1] of 50 to 100%, a pest or weed control at 50 µg/cm2 [1, 10] of 50 to 100% and a mortality at 50 µg/cm2 [2] of 50 to 100%. For the same compound, the pest or weed control at 50 µg/cm2 [2, 11] was 50 to 100%, the YFM rating ([3]; Yellow Fever Mosquito) was “A (80–100)” and the “YFM % Control (or Mortality) rating” value [3] was “A (80–100)”.
CC(=O)N(C)c1c(F)ccc(NC(=O)c2cc(NC(=O)[C@H]3[C@H](c4ccc(F)c(C(F)(F)F)c4)C3(Cl)Cl)ccc2Cl)c1F [F1506, 2-Chloro-5-((1R,3R)-2,2-dichloro-3-(4-fluoro-3-(trifluoromethyl)phenyl)cyclopropane-1-carboxamido)-N-(2,4-difluoro-3-(N-methylacetamido)phenyl)benzamide] was tested, and the pest or weed control at 50 µg/cm2 [1, 4] was 50 to 100%, the pest or weed control at 50 µg/cm2 [2, 5] was 50 to 100% and the YFM [3, 6] was “A (80–100)”.
In the case of COc1c(F)cc(NC(=O)[C@H]2[C@H](c3ccc(F)c(Cl)c3)C2(Cl)Cl)cc1C(=O)Nc1ccc(F)cc1 (relative stereo) [F1218, trans-5-(2,2-Dichloro-3-(3-chloro-4-fluorophenyl)cyclopropane-1-carboxamido)-3-fluoro-N-(4-fluorophenyl)-2-methoxybenzamide], the pest or weed control at 50 µg/cm2 [1, 7] is reported as 50 to 100%, the pest or weed control at 50 µg/cm2 [2, 8] is reported as 50 to 100% and the YFM [3, 9] is reported as “A (80–100)”.
O=C(Nc1ccc(F)c(NC(=O)C2CCOC2)c1F)c1cc(NC(=O)[C@H]2[C@H](c3ccc(F)c(C(F)(F)F)c3)C2(Cl)Cl)ccc1Cl (stereo partly drawn) [F1480, N-(3-(2-Chloro-5-((1R,3R)-2,2-dichloro-3-(4-fluoro-3-(trifluoromethyl)phenyl)cyclopropane-1-carboxamido)benzamido)-2,6-difluorophenyl)tetrahydrofuran-3-carboxamide] was tested, and the pest or weed control at 50 µg/cm2 [1, 4] was 50 to 100%, the pest or weed control at 50 µg/cm2 [2, 5] was 50 to 100% and the YFM [3, 6] was “A (80–100)”.
Nc1c(F)ccc(NC(=O)c2cc(NC(=O)[C@H]3[C@H](c4cc(Cl)cc(C(F)F)c4)C3(Cl)Cl)ccc2Cl)c1F (relative stereo) [F1038, trans-N-(3-Amino-2,4-difluorophenyl)-2-chloro-5-(2,2-dichloro-3-(3-chloro-5-(difluoromethyl)phenyl)cyclopropane-1-carboxamido)benzamide] was tested, and the pest or weed control at 50 µg/cm2 [1, 7] was 50 to 100%, the pest or weed control at 50 µg/cm2 [2, 8] was 50 to 100% and the YFM [3, 9] was “A (80–100)”.
CC1(C(=O)Nc2c(F)ccc(NC(=O)c3cc(NC(=O)[C@H]4[C@H](c5ccc(F)c(C(F)(F)F)c5)C4(Cl)Cl)ccc3Cl)c2F)CC1 [F1362, 2-Chloro-5-((1R,3R)-2,2-dichloro-3-(4-fluoro-3-(trifluoromethyl)phenyl)cyclopropane-1-carboxamido)-N-(2,4-difluoro-3-(1-methylcyclopropane-1-carboxamido)phenyl)benzamide] was tested, and the pest or weed control at 50 µg/cm2 [1, 7] was 50 to 100%, the pest or weed control at 50 µg/cm2 [2, 8] was 50 to 100% and the YFM [3, 9] was “A (80–100)”.
N#CCC(=O)Nc1c(Cl)ccc(NC(=O)c2cc(NC(=O)[C@H]3[C@H](c4ccc(Cl)c(Cl)c4)C3(Cl)Cl)ccc2Cl)c1Cl [F1415, 2-Chloro-N-(2,4-dichloro-3-(2-cyanoacetamido)phenyl)-5-((1R,3R)-2,2-dichloro-3-(3,4-dichlorophenyl)cyclopropane-1-carboxamido)benzamide] was tested, and the pest or weed control at 50 µg/cm2 [1, 4] was 50 to 100%, the pest or weed control at 50 µg/cm2 [2, 5] was 50 to 100% and the YFM [3, 6] was “A (80–100)”.
In the case of O=C(CCNC(=O)c1cc(NC(=O)[C@H]2[C@H](c3cc(Cl)cc(Cl)c3)C2(Cl)Cl)ccc1Cl)NCCC(F)(F)F (relative stereo) [F2092, trans-2-Chloro-5-(2,2-dichloro-3-(3,5-dichlorophenyl)cyclopropane-1-carboxamido)-N-(3-oxo-3-(3,3,3-trifluoropropylamino)propyl)benzamide], the pest or weed control at 50 µg/cm2 [1, 10] is reported as 50 to 100%, the pest or weed control at 50 µg/cm2 [2, 11] is reported as 50 to 100% and the YFM rating ([3]; Yellow Fever Mosquito) is reported as “B (More than 0 – Less than 80)”.
